Assays:
[1] = biological target: T1, Octopine dehydrogenase (OcDH) (Pecten maximus, UniProt Q9BHM6); experiment: 1H-15N TROSY-HSQC NMR titration; also present in the OcDH/NADH/agmatine crystal structure; assay type: binding
T1 construct: gene odh1; OcDH-His5, U-[15N] labeled

[2] = biological target: T2, Octopine dehydrogenase (OcDH) (Pecten maximus, UniProt Q9BHM6); experiment: X-ray crystal structure ([…] Å, soak) of OcDH/NADH/agmatine; Ki from enzyme inhibition (Lineweaver-Burk); assay type: biochemical
T2 construct: gene odh1; OcDH-His5, residues 2–404 in the model
T2 sequence (Q9BHM6 1-399): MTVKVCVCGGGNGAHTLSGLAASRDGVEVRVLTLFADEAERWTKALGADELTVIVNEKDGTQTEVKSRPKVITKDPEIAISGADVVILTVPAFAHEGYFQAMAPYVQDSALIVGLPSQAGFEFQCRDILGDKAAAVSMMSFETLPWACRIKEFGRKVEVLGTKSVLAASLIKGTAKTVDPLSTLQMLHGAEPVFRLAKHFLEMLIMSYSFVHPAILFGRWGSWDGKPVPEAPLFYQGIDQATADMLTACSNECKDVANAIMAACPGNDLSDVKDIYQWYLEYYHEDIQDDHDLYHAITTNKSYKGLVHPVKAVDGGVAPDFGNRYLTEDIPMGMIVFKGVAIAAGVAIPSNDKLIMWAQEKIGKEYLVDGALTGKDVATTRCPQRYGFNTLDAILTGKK

[3] = biological target: T1, Octopine dehydrogenase (OcDH); experiment: 1H-15N TROSY-HSQC NMR titration; assay type: binding
[4] = biological target: T1, Octopine dehydrogenase (OcDH); experiment: 1H-15N TROSY-HSQC NMR titration of OcDH saturated with […] NADH; assay type: binding

With `NC(=O)C1=CN([C@@H]2O[C@H](COP(=O)(O)OP(=O)(O)OC[C@H]3O[C@@H](n4cnc5c(N)ncnc54)[C@H](O)[C@@H]3O)[C@@H](O)[C@H]2O)C=CC1` [NADH] the Kd [1] was 62 ± 7 µM.

Compound `N=C(N)NCCCCN` [agmatine] has a Ki [2] of 40000 ± 2000 µM.

Compound `NC(=O)c1ccc[n+]([C@@H]2O[C@H](COP(=O)([O-])OP(=O)(O)OC[C@H]3O[C@@H](n4cnc5c(N)ncnc54)[C@H](O)[C@@H]3O)[C@@H](O)[C@H]2O)c1` [NAD^+] has a Kd [3] of 400 ± 50 µM.

For `N=C(N)NCCC[C@H](N)C(=O)O` [L-arginine], the Kd [4] was 4100 ± 310 µM.

From PMC2924402, “Insights into the Mechanism of Ligand Binding to Octopine Dehydrogenase from Pecten maximus by NMR and Crystallography” (PLoS ONE, 2010)
